Reference: publication PMC10597491 (PLOS ONE, 2023)
Bridge positions count the residues as written; N and C are the ends. Ends that are not written are not given here.

Legend:
Format in all cases: cell-based
[1] = system: human naive CD4+ T-cells; test: pSTAT5 ELISA in isolated naive CD4+ T-cells; conditions: for EC50: rested naive CD4+ T-cells, 15 min exposure, pSTAT5 ELISA
Experimental: (§1) We first assessed induction kinetics over a time course of compound exposure. Saturating concentrations of each of the compounds, previously determined to elicit maximum response of pSTAT5 signaling, were applied to the cells and pSTAT5 levels monitored for up to 2 hours. The resulting time-response profiles served to compare the kinetics of signal induction for the different compounds, and to determine Tmax for correct time of exposure in subsequent dose response determinations for each compound. In these studies, IL-7-induced pSTAT5 accumulation rose rapidly to a maximum by 15 to 30 minutes, then declined slowly for the remainder of the time course.
(§2) Naive CD4+ and CD8+ T-cells, were separately isolated by negative selection from PBMCs, and rested overnight prior to compound exposure.
(§3) For preparation of lymphocyte subsets, naïve CD4+ T-cells were isolated via two-stage negative selection with EasySep™ Human Naïve CD4+ T-Cell Isolation Kit II (Stemcell Technologies Cat# 17555); and CD8+ T-cells were isolated by negative selection from PBMCs with Stem Cell Technology Easy Sep CD8+ kit, or obtained freshly prepared from Stanford Blood Center. Rested naïve CD4+ T-cells or CD8+ T-cells were prepared by overnight incubation at 37°C, 5% CO2 in CTS™ OpTmizer™ T-Cell Expansion SFM (ThermoFisher Scientific Cat# A1048501).
(§4) Cells were deprived of growth factors by overnight incubation at 5×10^5 cells/mL in starvation medium (RPMI 1640 + 4.5 g/L glucose + 0.2% FBS + 2 mM L-glutamine + 1 mM NaPyr + 10 mM HEPES + 0.5x penicillin-streptomycin with no cytokine supplement) in T75 flasks. For assays, cells were plated in 96-well V-bottom plates at 2×10^5 cells/well. […] Following incubation, cell extracts were prepared by adding a mixture of 10x Cell Lysis Buffer (Cell Signaling Technology Cat# 9803) and 100x HALT Phosphatase and Protease Inhibitor Cocktail (Thermo Fisher Cat# 78442) directly to the wells. The plates were agitated at 25°C for 5 min to prepare cell extracts for immediate use or to be stored at -80°C until assay. […]

[2] = system: human naive CD8+ T-cells; test: pSTAT5 ELISA in isolated naive CD8+ T-cells; conditions: for EC50: rested naive CD8+ T-cells, 15 min exposure, pSTAT5 ELISA
Experimental: as §1, §2, §3, §4

[3] = system: rested human CD8+ T-cells; test: IL-7Rα (CD127) internalization assay
Experimental: In previous studies, the decline of IL-7Rα on the surface of IL-7-treated CD8+ cells was reported to proceed with approximately linear kinetics, reaching ~80% disappearance of receptor over 6 hours at 37°C [49]. […] Surface IL-7R was pre-loaded with saturating concentrations of the agonists on ice and shifted to 37°C to allow internalization, then shifted back to ice to stop internalization. […] A parallel assay with all incubations held on ice for the duration of the time course was also run.
Fig 8 Test compounds induce decrease in cell surface IL-7Rα. […] Following timed incubations, the samples were stained, fixed, and analyzed by flow cytometry; and data was collected as median fluorescence intensity (MFI), as detailed in Methods. […] The primary flow data (MFI) is shown in S3 Fig.
CD8+ cells isolated by negative selection from PBMCs with Stem Cell Technology Easy Sep CD8+ kit, or obtained freshly prepared from Stanford Blood Center, were rested overnight in RPMI 1640 containing Pen/Strep, L-Glutamine and 20% FBS; then resuspended to 7.0 x10^6 cells/mL. […] To determine levels of cell surface IL-7Rα, analysis was performed by flow cytometry to determine median fluorescence intensity (MFI) of cells at each condition. […]

[4] = system: human PBMCs; test: pSTAT5 flow cytometry in human PBMC subsets
Source text: Frozen PBMCs from 5 healthy human donors (A, B) and cynomolgus monkey (C) were rested (A, C) or activated with anti-CD3/CD28 (B). Cells were stained for viability, followed by cell surface antibody staining on ice. […] After washing, cells were fixed, permeabilized, stained with anti-pSTAT5 antibody, and analyzed immediately by flow cytometry. The mean fluorescence intensity (MFI) of pSTAT5 detection was shown as mean ± SEM. […] Flow cytometry gating data shown in S2 Fig.
To detect phopho-STAT5 in immune subsets of PBMCs by flow cytometry, frozen human and cynomolgus macaques PBMCs (Stemcell Technologies, Cat# 70025.2 and iQ Biosciences, Cat# IQB-MnPB102, respectively) from 5 different healthy donors were thawed and rested overnight in T-cell media (CTS™ OpTmizer™ T-Cell Expansion SFM, ThermoFisher Scientific Cat# A1048501) at 37°C. Cells were stained with a viability dye for 30 min at 37°C followed by surface marker antibodies for 30 min on ice (S3 Table), then treated with serially diluted test compounds in the medium for 30 min. […] Antibody-stained cells were analyzed immediately by flow cytometry using the Novocyte Advanteon instrument (Agilent), and the data were analyzed using FlowJo software. Fluorescence minus one (FMO) controls were used to draw gates. […]

Row | Substance | agonist efficacy, CD4+ ([1]; dose response at 15 min) | EC50 [1] [nM] | agonist efficacy, CD8+ ([2]; dose response at 15 min) | EC50 [2] [nM] | rate of surface decline of IL-7Rα ([3]; 1 μM, 37°C) | pSTAT5 response of NK cells [4] | loss of IL-7Rα surface density ([3]; 6 hours at 37°C, 10 nM IL-7) [%]
1 | Ac-GWGIPWCTLDPGSLQCAWLGKHGGGGSGGVVCQDWEGVELCWQGG (disulfide 7-16, 32-41) [MDK1472] | full agonists | 1.3 | full agonists | 0.35 | tracked very closely with that induced by IL-7 | – | –
2 | IL-7: human IL-7 cytokine (Peprotech) | – | 0.0025 | – | 0.0028 | – | no pSTAT5 response | 60
